Results published in PMC3981466 (Bioorganic & medicinal chemistry letters, 2013).
Read-outs that look alike come from different tables or passages of the source.

Key:
S. aureus SPase = S. aureus SPase (Staphylococcus aureus, UniProt P0A070); assay: Biochemical activity
E. coli SPase = E. coli SPase (Escherichia coli, UniProt P00803); assay: Biochemical activity
[1] = test system: methicillin resistant S. aureus (MRSA) strain USA300; settings: included for reference, cited from earlier work
[2] = test system: S. aureus (MSSA) strain 8325; settings: wild type MSSA strain 8325; included for reference; cited from earlier work
E. coli (MG1655) = settings: wild type MG1655; included for reference; cited from earlier work

Sequence of E. coli SPase (P00803 whole entry): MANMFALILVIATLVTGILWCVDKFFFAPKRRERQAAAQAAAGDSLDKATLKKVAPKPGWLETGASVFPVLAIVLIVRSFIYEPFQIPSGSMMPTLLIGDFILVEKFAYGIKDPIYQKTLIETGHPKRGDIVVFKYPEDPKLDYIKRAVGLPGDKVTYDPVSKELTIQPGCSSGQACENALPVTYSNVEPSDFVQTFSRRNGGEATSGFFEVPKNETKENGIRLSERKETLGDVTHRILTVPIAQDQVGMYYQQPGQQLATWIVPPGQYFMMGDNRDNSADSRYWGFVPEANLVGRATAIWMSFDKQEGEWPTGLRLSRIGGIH
Sequence of S. aureus SPase (P0A070 whole entry): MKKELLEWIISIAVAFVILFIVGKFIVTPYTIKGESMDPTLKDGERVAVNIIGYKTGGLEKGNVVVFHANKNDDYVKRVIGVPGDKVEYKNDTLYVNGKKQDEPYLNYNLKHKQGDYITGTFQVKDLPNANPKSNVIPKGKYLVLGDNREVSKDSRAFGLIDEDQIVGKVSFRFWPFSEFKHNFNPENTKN

CCCCCCCCCCCCCCCC(=O)N(C)[C@H](CO)C(=O)N[C@H](C)C(=O)NCC(=O)N(C)[C@@H]1C(=O)N[C@@H](C)C(=O)N[C@H](C(=O)NCP(=O)(O)O)Cc2ccc(O)c(c2)-c2cc1ccc2O [Compound 1]
loss of activity relative to parent arylomycin A-C16 (S. aureus SPase): ~ 10 fold | loss of activity relative to parent arylomycin A-C16 (E. coli SPase): ~ 10 fold

CCCCCCCCCCCCCCCC(=O)N(C)[C@H](CO)C(=O)N[C@H](C)C(=O)NCC(=O)N(C)[C@@H]1C(=O)N[C@@H](C)C(=O)N[C@H](C(=O)NCP(=O)(Oc2ccccc2)Oc2ccccc2)Cc2ccc(O)c(c2)-c2cc1ccc2O [Compound 4]
change of affinity/activity relative to parent, in words (S. aureus SPase): lost virtually all affinity | change of affinity/activity relative to parent, in words (E. coli SPase): lost virtually all affinity

CCCCCCCCCCCCCCCC(=O)N(C)[C@H](CO)C(=O)N[C@H](C)C(=O)NCC(=O)N(C)[C@@H]1C(=O)N[C@@H](C)C(=O)N[C@H](C(=O)NCC=O)Cc2ccc(O)c(c2)-c2cc1ccc2O [Compound 5]
more potent than arylomycin A-C16 (S. aureus SPase): 40 fold | more potent than arylomycin A-C16 (E. coli SPase): 5 fold

CCCCCCCCCCCCCCCC(=O)N(C)[C@H](CO)C(=O)N[C@H](C)C(=O)NCC(=O)N(C)[C@@H]1C(=O)N[C@@H](C)C(=O)N[C@H](CC(=O)NCC=O)Cc2ccc(O)c(c2)-c2cc1ccc2O [Compound 6]
change of affinity/activity relative to parent, in words (S. aureus SPase): lost virtually all activity | change of affinity/activity relative to parent, in words (E. coli SPase): lost virtually all activity

CCCCCCCCCCCCCCCC(=O)N(C)[C@H](CO)C(=O)N[C@H](C)C(=O)NCC(=O)N(C)[C@@H]1C(=O)N[C@@H](C)C(=O)N[C@H](C(=O)O)Cc2ccc(O)c(c2)-c2cc1ccc2OP(=O)(O)O [Compound 7]
IC50 difference relative to arylomycin A-C16 (S. aureus SPase): ≤ 2 fold | IC50 difference relative to arylomycin A-C16 (E. coli SPase): ≤ 2 fold

CCCCCCCCCCCCCCCC(=O)N(C)[C@H](CO)C(=O)N[C@H](C)C(=O)NCC(=O)N(C)[C@@H]1C(=O)N[C@@H](C)C(=O)N[C@H](C(=O)NCC=O)Cc2ccc(O)c(c2)-c2cc1ccc2OP(=O)(OCc1ccccc1)OCc1ccccc1 [Compound 8]
lower affinity on the glycyl aldehyde backbone (E. coli SPase; Hpg modification on glycyl aldehyde scaffold (of 5)): 15 fold

CCCCCCCCCCCCCCCC(=O)N(C)[C@H](CO)C(=O)N[C@H](C)C(=O)NCC(=O)N(C)[C@@H]1C(=O)N[C@@H](C)C(=O)N[C@H](C(=O)O)Cc2ccc(O)c(c2)-c2cc1ccc2OCCN [Compound 9]
IC50 difference relative to arylomycin A-C16 (S. aureus SPase): ≤ 2 fold | IC50 difference relative to arylomycin A-C16 (E. coli SPase): ≤ 2 fold

CCCCCCCCCCCCCCCC(=O)N(C)[C@H](CO)C(=O)N[C@H](C)C(=O)NCC(=O)N(C)[C@@H]1C(=O)N[C@@H](C)C(=O)N[C@H](C(=O)O)Cc2ccc(O)c(c2)-c2cc1ccc2OCCO [Compound 11]
IC50 difference relative to arylomycin A-C16 (S. aureus SPase): ≤ 2 fold | IC50 difference relative to arylomycin A-C16 (E. coli SPase): ≤ 2 fold

CCCCCCCCCCCCCCCC(=O)N(C)[C@H](CO)C(=O)N[C@H](C)C(=O)NCC(=O)N(C)[C@@H]1C(=O)N[C@@H](C)C(=O)N[C@H](C(=O)O)Cc2ccc(O)c(c2)-c2cc1ccc2O [arylomycin A-C16]
MIC MRSA ([1]; listed as A-C16): >64 µg/mL | MIC MRSA [1]: no detectable activity | MIC S. aureus [2]: >64 µg/mL | MIC E. coli (E. coli (MG1655)): >64 µg/mL
